Legend:
Format in all cases: biochemical
P-Rex2 DH domain = target: T1, P-Rex2 DH domain (Homo sapiens, UniProt Q70Z35); assay: Liposome-based GEF activity assay, isolated P-Rex2 DH domain; conditions: 200 nM DH domain, read-out: inhibition of constitutive Rac-GEF activity of isolated P-Rex2 DH domain
T1 construct: constitutive Rac-GEF activity of the isolated P-Rex2 DH domain (by 92%); made in house; host or cells: Sf9 cells (baculovirus)
T1 sequence (Q70Z35 23-214 limits assumed): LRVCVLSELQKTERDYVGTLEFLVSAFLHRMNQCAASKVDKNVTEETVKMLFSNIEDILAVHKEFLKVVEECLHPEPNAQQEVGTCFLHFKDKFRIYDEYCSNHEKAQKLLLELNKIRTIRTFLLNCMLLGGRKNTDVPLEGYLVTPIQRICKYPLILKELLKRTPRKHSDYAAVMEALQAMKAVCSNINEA
Method: (§1) Full-length N-terminally EE-tagged P-Rex1, P-Rex2, the P-Rex1 DH and DHPH domains and the P-Rex2 DH domain were produced in Sf9 cells using baculoviral transduction and were purified using anti-EE beads, as previously described. Briefly, frozen pellets from 500 ml of Sf9 culture infected with P-Rex expressing high-titre baculovirus were resuspended in ice-cold lysis Sf9-cell lysis buffer 2 (1x PBS, 1% Triton X-100, 5 mM EGTA, 1 mM EDTA, 25 mM NaF, 20 mM β-glycerophosphate, 1 mM DTT, 100 µM PMSF, 10 μg/ml each of leupeptin, pepstatin A, aprotinin and antipain) for 5 min and then ultracentrifuged at 118,000 × g for 1 h at 4°C. Supernatants were incubated with pre-washed anti-EE beads for 90 min on ice with end-over-end rotation. […] Protein concentration and purity were determined by coomassie staining of SDS-PAGE gels. […]
(§2) Liposome-based GEF activity assays were carried out essentially as described, except that GEFs were incubated with inhibitor compounds prior to the assay. […] Small GTPases were isolated using anti-EE antibody-coupled Sepharose beads or glutathione Sepharose beads, as appropriate, by incubation on ice for 90 min with end-over-end rotation, four washes in ice-cold wash buffer and resuspension of beads in Ultima Gold scintillation fluid (Perkin Elmer). ^35S-GTPγS incorporation was assessed by scintillation counting (Packard 1600TR, Liquid Scintillation Analyser).

Ect2 (DHPH) = target: T2, Ect2 (DHPH) (Homo sapiens, UniProt Q9H8V3); assay: Liposome-based GEF activity assay, Ect2; conditions: 10 µM, 500 nM ECT2 DHPH
T2 construct: The ITSN1 DHPH domains and Ect2 DHPH domains, produced in and purified from bacteria; host or cells: bacteria
T2 sequence (Q9H8V3 452-794 limits assumed): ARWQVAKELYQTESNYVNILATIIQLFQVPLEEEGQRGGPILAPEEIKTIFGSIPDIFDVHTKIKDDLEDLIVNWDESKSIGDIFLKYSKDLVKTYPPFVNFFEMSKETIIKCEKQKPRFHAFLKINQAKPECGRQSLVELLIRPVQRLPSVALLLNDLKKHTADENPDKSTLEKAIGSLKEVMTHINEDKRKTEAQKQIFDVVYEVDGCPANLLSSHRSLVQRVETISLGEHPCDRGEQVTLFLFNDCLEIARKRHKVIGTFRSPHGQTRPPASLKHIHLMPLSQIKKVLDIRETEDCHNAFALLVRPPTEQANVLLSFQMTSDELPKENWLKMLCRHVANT
Method: as §1, §2

DOCK10 (DHR2) = target: T3, DOCK10 (DHR2) (Homo sapiens, UniProt Q96BY6); assay: Liposome-based GEF activity assay, DOCK10; conditions: 10 µM, 765 nM DOCK10 DHR2
T3 construct: The DOCK10 DHR2 domain, produced in and purified from bacteria; host or cells: bacteria
T3 sequence (Q96BY6 1690-2150 limits assumed): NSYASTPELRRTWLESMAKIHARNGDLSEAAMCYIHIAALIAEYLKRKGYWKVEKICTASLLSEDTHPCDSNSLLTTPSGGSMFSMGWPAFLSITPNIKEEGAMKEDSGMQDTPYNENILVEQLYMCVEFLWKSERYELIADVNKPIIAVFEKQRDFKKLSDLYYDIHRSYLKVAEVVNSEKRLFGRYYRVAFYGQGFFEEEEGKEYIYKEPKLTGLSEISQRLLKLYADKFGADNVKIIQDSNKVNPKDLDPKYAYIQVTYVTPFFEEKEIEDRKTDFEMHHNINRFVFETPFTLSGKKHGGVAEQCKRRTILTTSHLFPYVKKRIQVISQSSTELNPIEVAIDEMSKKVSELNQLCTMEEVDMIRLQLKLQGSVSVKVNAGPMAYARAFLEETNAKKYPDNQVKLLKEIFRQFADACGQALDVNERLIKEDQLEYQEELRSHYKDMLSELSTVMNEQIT
Method: as §1, §2

## COc1ccc(-c2[nH]nc3c2C(c2ccc(-c4ccc(Cl)cc4)o2)C(C#N)=C(N)O3)cc1 (stereo not drawn) [PREX-in1, 6-amino-4-[5-(4-chlorophenyl)-2-furyl]-3-(4-methoxyphenyl)-2,4-dihydropyrano[2,3-c]pyrazole-5-carbonitrile]
P-Rex2 DH domain
  inhibition at 10 µM: 92%
Ect2 (DHPH)
  effect on GEF activity of Ect2: none of the other GEFs were affected
DOCK10 (DHR2)
  effect on GEF activity of DOCK10: none of the other GEFs were affected

From article PMC9645260, “Small-molecule inhibitors of P-Rex guanine-nucleotide exchange factors” (Small GTPases, 2022)
